In patent US8552002B2 (Novartis AG, priority 2004, dated 2013) one finds inhibition data, which are given here for 23 compounds.

For orientation: inhibition means the relative decrease from the control value, in per cent.

Format in all cases: biochemical
One test has as its target T1, KDR (Homo sapiens, UniProt P35968).
T1 construct: expressed in transfected cells; host or cells: CHO cells
Kind of test: Inhibitory activity against KDR (VEGF-R2), in vitro data of Examples 170 and 207. Conditions: 10 μM; Examples 1 to 169; read-out: KDR inhibition at 10 μM. Summed up: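 KDR tyrosine phosphorylation detected by luminescence after overnight 4° C capture of 20 μg lysate protein with PY20:AP antibody. Lysates came from cells given compound for 2 h at 37° C, then final 20 ng/ml VEGF for 5 min; compound-free medium as control.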

Another test deals with T2, FGFR3 (K650E) (Homo sapiens, UniProt P22607, K650E).
T2 construct: amino acids 411-806 of the cytoplasmic domain of human FGFR-3, N-terminally fused to GST; made in house; host or cells: Sf9 insect cells (baculovirus)
Kind of test: Recombinant GST-FGFR-3-K650E tyrosine kinase assay (33P into poly(Glu,Tyr)). Conditions: 10 μM; Examples 1 to 169; read-out: FGFR3 (K650E) inhibition at 10 μM.

For the next test, the target named is T3, Tek (Homo sapiens, UniProt Q02763).
T3 construct: amino acids 773-1124 of the cytoplasmic kinase domain of human Tek, N-terminally fused to GST; made in house; host or cells: Sf9 insect cells (baculovirus)
Nature of the test: Recombinant GST-Tek (Tie-2) tyrosine kinase assay (33P into poly(Glu,Tyr)). Conditions: Examples 1 to 169. Summed up: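 Read-out is filter-bound 33P in poly(Glu,Tyr) 4:1 (10 μg/mL) after 30 min at ambient temperature with 4.0 μM ATP. Enzyme: 150 ng human GST-Tek (aa 773-1124) from insect cells, in Tris pH 7.5 with Mn2+/Mg2+ and vanadate. IC50 fitted linearly over four concentrations, usually 0.01-10 μM.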

T1 sequence (P35968 20-1356): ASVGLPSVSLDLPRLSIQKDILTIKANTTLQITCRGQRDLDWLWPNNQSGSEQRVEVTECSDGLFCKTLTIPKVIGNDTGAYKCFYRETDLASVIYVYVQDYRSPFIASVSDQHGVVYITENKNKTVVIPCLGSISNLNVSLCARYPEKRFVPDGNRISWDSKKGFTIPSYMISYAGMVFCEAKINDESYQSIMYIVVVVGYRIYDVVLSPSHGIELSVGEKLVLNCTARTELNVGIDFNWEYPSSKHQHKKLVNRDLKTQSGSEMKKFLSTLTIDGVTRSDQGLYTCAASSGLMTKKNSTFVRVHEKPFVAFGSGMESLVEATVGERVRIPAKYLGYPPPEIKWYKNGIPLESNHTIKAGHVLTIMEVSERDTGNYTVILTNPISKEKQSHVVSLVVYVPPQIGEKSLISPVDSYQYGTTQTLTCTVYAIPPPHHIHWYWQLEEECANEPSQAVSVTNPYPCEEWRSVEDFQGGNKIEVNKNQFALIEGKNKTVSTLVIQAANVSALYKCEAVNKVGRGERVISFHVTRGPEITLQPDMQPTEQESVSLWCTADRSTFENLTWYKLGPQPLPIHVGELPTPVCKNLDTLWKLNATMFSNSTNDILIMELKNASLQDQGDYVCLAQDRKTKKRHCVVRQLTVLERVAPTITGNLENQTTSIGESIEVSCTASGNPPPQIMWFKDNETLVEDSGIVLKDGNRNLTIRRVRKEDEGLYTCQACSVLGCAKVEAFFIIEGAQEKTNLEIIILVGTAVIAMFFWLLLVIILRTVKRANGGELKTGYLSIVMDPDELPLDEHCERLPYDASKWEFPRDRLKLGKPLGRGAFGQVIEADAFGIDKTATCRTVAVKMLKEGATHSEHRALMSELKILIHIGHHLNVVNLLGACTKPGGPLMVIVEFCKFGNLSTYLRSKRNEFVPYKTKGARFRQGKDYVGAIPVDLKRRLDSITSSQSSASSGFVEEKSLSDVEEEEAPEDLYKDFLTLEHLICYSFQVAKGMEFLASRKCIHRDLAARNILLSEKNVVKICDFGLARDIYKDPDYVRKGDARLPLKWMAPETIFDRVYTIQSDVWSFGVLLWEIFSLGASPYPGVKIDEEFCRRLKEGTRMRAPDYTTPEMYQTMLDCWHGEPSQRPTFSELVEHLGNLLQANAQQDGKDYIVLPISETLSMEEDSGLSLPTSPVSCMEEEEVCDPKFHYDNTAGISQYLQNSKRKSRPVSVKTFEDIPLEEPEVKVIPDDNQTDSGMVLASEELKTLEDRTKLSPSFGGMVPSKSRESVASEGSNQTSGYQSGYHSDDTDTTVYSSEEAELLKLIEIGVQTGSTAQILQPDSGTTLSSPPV
T3 sequence (Q02763 773-1124): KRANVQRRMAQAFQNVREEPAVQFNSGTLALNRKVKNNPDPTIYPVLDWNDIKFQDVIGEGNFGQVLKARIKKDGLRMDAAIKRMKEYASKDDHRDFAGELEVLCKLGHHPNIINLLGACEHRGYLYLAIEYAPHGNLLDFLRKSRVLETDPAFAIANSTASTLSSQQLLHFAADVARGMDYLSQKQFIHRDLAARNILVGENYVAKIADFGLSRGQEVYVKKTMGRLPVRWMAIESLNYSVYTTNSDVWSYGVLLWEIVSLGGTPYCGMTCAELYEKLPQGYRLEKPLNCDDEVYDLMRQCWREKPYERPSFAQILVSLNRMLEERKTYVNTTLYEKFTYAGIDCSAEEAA
T2 sequence (P22607 411-806 K650E): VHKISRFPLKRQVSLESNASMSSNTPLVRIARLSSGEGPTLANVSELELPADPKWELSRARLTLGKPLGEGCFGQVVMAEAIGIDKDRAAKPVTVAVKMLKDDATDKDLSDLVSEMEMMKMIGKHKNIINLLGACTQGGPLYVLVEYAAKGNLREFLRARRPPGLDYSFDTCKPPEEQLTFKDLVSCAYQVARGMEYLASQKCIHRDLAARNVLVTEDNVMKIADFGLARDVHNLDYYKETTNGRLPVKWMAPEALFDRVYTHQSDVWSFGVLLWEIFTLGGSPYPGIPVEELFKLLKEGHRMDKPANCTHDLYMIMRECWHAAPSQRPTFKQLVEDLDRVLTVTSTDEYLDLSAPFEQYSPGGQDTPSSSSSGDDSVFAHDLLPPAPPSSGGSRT

`COc1cc(NC(=O)Nc2cc(Nc3cccc(N4CCN(C)CC4)c3)ncn2)c(Cl)c(OC)c1` [Example 41]: the inhibition at 10 µM at KDR lay in the range of 67 to 100%; on FGFR3 (K650E), 27 to 100%; at Tek it was 12 to 100%.
The corresponding values for `CCN(CC)CCOc1ccc(Nc2cc(NC(=O)Nc3cc(OC)cc(OC)c3Cl)ncn2)cc1` [Example 42, 1-(2-Chloro-3,5-dimethoxy-phenyl)-3-{6-[4-(2-diethylamino-ethoxy)-phenylamino]-pyrimidin-4-yl}-urea] are 67 to 100%, 27 to 100% and 12 to 100%.
On the same counts, the results for `COc1cc(NC(=O)Nc2cc(Nc3cccc(OCCN(C)C)c3)ncn2)c(Cl)c(OC)c1` [Example 43, 1-(2-Chloro-3,5-dimethoxy-phenyl)-3-{6-[3-(2-dimethylamino-ethoxy)-phenylamino]-pyrimidin-4-yl}-urea] are 67 to 100%, 27 to 100% and 12 to 100%.
Regarding `COc1cc(NC(=O)Nc2cc(Nc3ccc(OCCN4CCOCC4)cc3)ncn2)c(Cl)c(OC)c1` [Example 44, 1-(2-Chloro-3,5-dimethoxy-phenyl)-3-{6-[4-(2-morpholin-4-yl-ethoxy)-phenylamino]-pyrimidin-4-yl}-urea], the inhibition at 10 µM at KDR lay in the range of 67 to 100%; on FGFR3 (K650E), 27 to 100%; on Tek it was 12 to 100%.
For `COc1cc(NC(=O)Nc2cc(Nc3cccc(OCCN4CCOCC4)c3)ncn2)c(Cl)c(OC)c1` [Example 45, 1-(2-Chloro-3,5-dimethoxy-phenyl)-3-{6-[3-(2-morpholin-4-yl-ethoxy)-phenylamino]-pyrimidin-4-yl}-urea], the inhibition at 10 µM on KDR is 67 to 100%; on FGFR3 (K650E), 27 to 100%; on Tek, 12 to 100%.
The corresponding values for `CCN(C(=O)Nc1cccc(OC)c1OC)c1cc(Nc2ccc(N3CCN(C)CC3)cc2)ncn1` [Example 46, 3-(2,3-Dimethoxy-phenyl)-1-ethyl-1-{6-[4-(4-methyl-piperazin-1-yl)-phenylamino]-pyrimidin-4-yl}-urea] are 67 to 100%, 27 to 100% and 12 to 100%.
With `COc1cc(NC(=O)N(C)c2cc(Nc3cccc(N4CCN(C)CC4)c3)ncn2)cc(OC)c1` [Example 48, 3-(3,5-Dimethoxy-phenyl)-1-methyl-1-{6-[3-(4-methyl-piperazin-1-yl)-phenylamino]-pyrimidin-4-yl}-urea], the inhibition at 10 µM fell in the range of 67 to 100% at KDR, 27 to 100% at FGFR3 (K650E) and 12 to 100% on Tek.
On the same counts, the results for `COc1cc(NC(=O)N(C)c2cc(Nc3ccccc3)ncn2)c(Cl)c(OC)c1` [Example 49, 3-(2-Chloro-3,5-dimethoxy-phenyl)-1-methyl-1-(6-phenylamino-pyrimidin-4-yl)-urea] are 67 to 100%, 27 to 100% and 12 to 100%.
The corresponding values for `COc1cc(NC(=O)N(C)c2cc(Nc3cccc(N4CCN(C)CC4)c3)ncn2)c(Cl)c(OC)c1` [Example 51, 3-(2-Chloro-3,5-dimethoxy-phenyl)-1-methyl-1-{6-[3-(4-methyl-piperazin-1-yl)-phenylamino]-pyrimidin-4-yl}-urea] are 67 to 100%, 27 to 100% and 12 to 100%.
On the same counts, the results for `COc1cc(NC(=O)N(C)c2cc(Nc3ccc(C(=O)N4CCN(C)CC4)cc3)ncn2)c(Cl)c(OC)c1` [Example 52, 3-(2-Chloro-3,5-dimethoxy-phenyl)-1-methyl-1-{6-[4-(4-methyl-piperazine-1-carbonyl)-phenylamino]-pyrimidin-4-yl}-urea] are 67 to 100%, 27 to 100% and 12 to 100%.
As for `CCN(CC)CCOc1ccc(Nc2cc(N(C)C(=O)Nc3cc(OC)cc(OC)c3Cl)ncn2)cc1` [Example 53, 3-(2-Chloro-3,5-dimethoxy-Phenyl)-1-{6-[4-(2-diethylamino-ethoxy)-phenylamino]-pyrimidin-4-yl}-1-methyl-urea], the inhibition at 10 µM on KDR was 67 to 100%; at FGFR3 (K650E), 27 to 100%; at Tek, 12 to 100%.
On the same counts, the results for `COc1cc(NC(=O)N(C)c2cc(Nc3cccc(OCCN(C)C)c3)ncn2)c(Cl)c(OC)c1` [Example 54, 3-(2-Chloro-3,5-dimethoxy-phenyl)-1-{6-[3-(2-dimethylamino-ethoxy)-phenylamino]-pyrimidin-4-yl}-1-methyl-urea] are 67 to 100%, 27 to 100% and 12 to 100%.
The corresponding values for `COc1cc(NC(=O)N(Cc2cccs2)c2cc(Nc3ccc(N4CCN(C)CC4)cc3)ncn2)c(Cl)c(OC)c1` [Example 56, 3-(2-Chloro-3,5-dimethoxy-phenyl)-1-{6-[4-(4-methyl-piperazin-1-yl)-phenylamino]-pyrimidin-4-yl}-1-thiophen-2-ylmethyl-urea] are 67 to 100%, 27 to 100% and 12 to 100%.
The corresponding values for `COc1cc(NC(=O)N(CCN2CCN(C)CC2)c2cc(Nc3ccccc3)ncn2)c(Cl)c(OC)c1` [Example 57, 3-(2-Chloro-3,5-dimethoxy-phenyl)-1-[2-(4-methyl-piperazin-1-yl)-ethyl]-1-(6-phenylamino-pyrimidin-4-yl)-urea] are 67 to 100%, 27 to 100% and 12 to 100%.
Regarding `COc1cc(NC(=O)N(CCc2ccccn2)c2cc(Nc3ccccc3)ncn2)c(Cl)c(OC)c1` [Example 58, 3-(2-Chloro-3,5-dimethoxy-phenyl)-1-(6-phenylamino-pyrimidin-4-yl)-1-(2-pyridin-2-yl-ethyl)-urea], the results for the inhibition at 10 µM at KDR, on FGFR3 (K650E) and at Tek were 67 to 100%, 27 to 100% and 12 to 100%, respectively.
The corresponding values for `CCN(C(=O)Nc1c(Cl)ccc(OC)c1Cl)c1cc(Nc2ccc(N3CCN(C)CC3)cc2)ncn1` [Example 59, 3-(2,6-Dichloro-3-methoxy-phenyl)-1-ethyl-1-{6-[4-(4-methyl-piperazin-1-yl)-phenylamino]-pyrimidin-4-yl}-urea] are 67 to 100%, 27 to 100% and 12 to 100%.
On the same counts, the results for `COc1ccc(Cl)c(NC(=O)N(C)c2cc(Nc3cccc(N4CCN(C)CC4)c3)ncn2)c1Cl` [Example 60, 3-(2,6-Dichloro-3-methoxy-phenyl)-1-methyl-1-{6-[3-(4-methyl-piperazin-1-yl)-phenylamino]-pyrimidin-4-yl}-urea] are 67 to 100%, 27 to 100% and 12 to 100%.
The corresponding values for `COc1ccc(Cl)c(NC(=O)N(C)c2cc(Nc3ccc(C(=O)N4CCN(C)CC4)cc3)ncn2)c1Cl` [Example 61, 3-(2,6-Dichloro-3-methoxy-phenyl)-1-methyl-1-{6-[4-(4-methyl-piperazine-1-carbonyl)-phenylamino]-pyrimidin-4-yl}-urea] are 67 to 100%, 27 to 100% and 12 to 100%.
For the compound `COc1ccc(Cl)c(NC(=O)N(C)c2cc(Nc3ccc(CN4CCN(C)CC4)cc3)ncn2)c1Cl` [Example 62, 3-(2,6-Dichloro-3-methoxy-phenyl)-1-methyl-1-{6-[4-(4-methyl-piperazin-1-ylmethyl)-phenylamino]-pyrimidin-4-yl}-urea], the figures for the inhibition at 10 µM on KDR, on FGFR3 (K650E) and on Tek were 67 to 100%, 27 to 100% and 12 to 100%, respectively.
As for `COc1ccc(CN(C(=O)Nc2c(Cl)ccc(OC)c2Cl)c2cc(Nc3ccc(N4CCN(C)CC4)cc3)ncn2)cn1` [Example 63, 3-(2,6-Dichloro-3-methoxy-phenyl)-1-(6-methoxy-pyridin-3-ylmethyl)-1-{6-[4-(4-methyl-piperazin-1-yl)-phenylamino]-pyrimidin-4-yl}-urea], the inhibition at 10 µM is 67 to 100% on KDR, 27 to 100% at FGFR3 (K650E) and 12 to 100% at Tek.
The corresponding values for `CCN(C(=O)Nc1c(Cl)c(OC)cc(OC)c1Cl)c1cc(Nc2ccc(C(=O)N3CCN(C)CC3)cc2)ncn1` [Example 64, 3-(2,6-Dichloro-3,5-dimethoxy-phenyl)-1-ethyl-1-{6-[4-(4-methyl-piperazine-1-carbonyl)-phenylamino]-pyrimidin-4-yl}-urea] are 67 to 100%, 27 to 100% and 12 to 100%.
The corresponding values for `COc1ccc(Cl)cc1NC(=O)Nc1cc(Nc2ccc(N3CCN(C)CC3)cc2)ncn1` [Example 78, 1-(5-Chloro-2-methoxy-phenyl)-3-{6-[4-(4-methyl-piperazin-1-yl)-phenylamino]-pyrimidin-4-yl}-urea] are 67 to 100%, 27 to 100% and 12 to 100%.
The corresponding values for `O=C(Nc1cc(N[C@H]2CC[C@H](O)CC2)ncn1)Nc1c(Cl)cccc1Cl` [Example 92, 1-(2,6-Dichloro-phenyl)-3-[6-((trans)-4-hydroxy-cyclohexylamino)-pyrimidin-4-yl]-urea] are 67 to 100%, 27 to 100% and 12 to 100%.
